Each structure is given as a SMILES string.

Assay [1] concerns the target T1, human recombinant adrenergic α2B receptor (Homo sapiens, UniProt P18089).
T1 construct: expressed in transfected cells; host or cells: Chinese hamster ovary (CHO-K1) cells
T1 sequence (P18089 1-450): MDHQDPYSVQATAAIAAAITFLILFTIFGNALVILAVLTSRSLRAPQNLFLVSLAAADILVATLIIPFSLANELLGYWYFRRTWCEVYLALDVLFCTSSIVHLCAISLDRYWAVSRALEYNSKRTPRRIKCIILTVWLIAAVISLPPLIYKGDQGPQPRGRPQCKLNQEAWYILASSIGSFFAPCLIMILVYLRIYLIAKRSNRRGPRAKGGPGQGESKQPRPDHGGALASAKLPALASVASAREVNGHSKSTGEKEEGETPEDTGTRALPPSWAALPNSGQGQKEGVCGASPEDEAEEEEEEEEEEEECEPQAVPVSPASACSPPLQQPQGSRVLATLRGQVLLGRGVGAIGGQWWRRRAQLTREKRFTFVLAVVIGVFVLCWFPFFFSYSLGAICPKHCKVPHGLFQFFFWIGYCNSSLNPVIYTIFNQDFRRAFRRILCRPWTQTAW
Description: Adrenergic α2B radioligand binding assay. Particulars: 1 μM; [3H]Rauwolscine specific binding; read-out: Percent Inhibition of ligand binding, Adrenergic (1 μM ligand conc.) α2B. The protocol:
To evaluate in radioligand binding assays the activity of compounds of the invention, human recombinant adrenergic α2B receptor expressed in Chinese hamster ovary (CHO-K1) cells [Uhlen, S et al., Eur J Pharmacol. (1998), 343(1):93] in a modified Tris-HCl buffer (50 mM Tris-HCl, pH 7.4, 12.5 mM MgCl2, 1 mM EDTA, 0.2% BSA) was used. Compounds of the invention were incubated with 2.5 nM [^3H]Rauwolscine for 60 min. at 25° C. Non-specific binding was estimated in the presence of 10 μM Prozosin. Receptor proteins were filtered and washed, the filters were then counted to determine [^3H]Rauwolscine specifically bound. Compounds were screened at 1 μM or lower, using 1% DMSO as vehicle. Compounds of the invention were tested in this biochemical assay. Biochemical assay results for representative compounds were presented as the percent inhibition of specific binding in Table 3.

The target in assay [2] is human recombinant dopamine D2L receptor (Homo sapiens, UniProt P14416). In words: Dopamine D2L radioligand binding assay. Particulars: [3H]Spiperone specific binding, read-out: Percent Inhibition of ligand binding, Dopamine (1 μM ligand conc.) D2L. How it is done: To evaluate in radioligand binding assays the activity of compounds of the invention, human recombinant dopamine D2L receptor expressed in Chinese hamster ovary (CHO) cells [Grandy, D. K. et al. Proc. Natl. Acad. Sci. USA. (1989), 86:9762; Hayes, G. et al., Mol. Endocrinol. (1992), 6:920] in a modified Tris-HCl buffer (50 mM Tris-HCl, pH 7.4, 1.4 mM Ascorbic Acid, 0.001% BSA, 150 mM NaCl) was used. Compounds of the invention were incubated with 0.16 nM [^3H]Spiperone for 120 min. at 25° C. Non-specific binding was estimated in the presence of 10 μM Haloperidol. Receptor proteins were filtered and washed, the filters were then counted to determine [^3H]Spiperone specifically bound. Compounds were screened at 1 μM or lower, using 1% DMSO as vehicle. Biochemical assay results are presented as the percent inhibition of specific binding in Table 3.

Assay [3] addresses T2, human recombinant serotonin (5-Hydroxytryptamine) 5-HT2C receptor (Homo sapiens, UniProt P28335).
T2 construct: expressed in transfected cells; host or cells: Chinese hamster ovary (CHO-K1) cells
T2 sequence (P28335 33-458): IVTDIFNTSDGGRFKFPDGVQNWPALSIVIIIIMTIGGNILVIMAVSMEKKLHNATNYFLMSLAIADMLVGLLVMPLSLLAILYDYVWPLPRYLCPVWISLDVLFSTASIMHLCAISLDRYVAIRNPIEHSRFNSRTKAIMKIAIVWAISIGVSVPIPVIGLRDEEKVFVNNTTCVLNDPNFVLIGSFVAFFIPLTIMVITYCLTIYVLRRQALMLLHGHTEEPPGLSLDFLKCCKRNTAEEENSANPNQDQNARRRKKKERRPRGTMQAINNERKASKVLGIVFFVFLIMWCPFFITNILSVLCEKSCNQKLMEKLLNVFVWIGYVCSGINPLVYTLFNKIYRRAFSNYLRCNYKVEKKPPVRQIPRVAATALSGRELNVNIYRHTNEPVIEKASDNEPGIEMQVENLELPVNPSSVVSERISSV
Description: Serotonin 5-HT2C radioligand binding assay. Particulars: [3H]Mesulergine specific binding, read-out: Percent Inhibition of ligand binding, Serotonin (1 μM ligand concentration) 5-HT2C. The protocol: To evaluate in radioligand binding assays the activity of compounds of the invention, human recombinant serotonin (5-Hydroxytryptamine) 5-HT2C receptor expressed in Chinese hamster ovary (CHO-K1) cells [Wolf, W. A. et al., J. Neurochem. (1997), 69:1449] in a modified Tris-HCl buffer (50 mM Tris-HCl, pH 7.4, 0.1% Ascorbic Acid, 10 μM Pargyline) was used. Compounds of the invention were incubated with 1 nM [^3H]Mesulergine for 60 min. at 25° C. Non-specific binding was estimated in the presence of 1 μM Mianserin. Receptor proteins were filtered and washed, the filters were then counted to determine [^3H]Mesulergine specifically bound. Compounds were screened at 1 μM or lower, using 1% DMSO as vehicle. Biochemical assay results are presented as the percent inhibition of specific binding in Table 4.

In assay [4] the target is human recombinant histamine H1 receptor (Homo sapiens, UniProt P35367). In words: Histamine H1 radioligand binding assay. Particulars: [3H]Pyrilamine specific binding, read-out: Percentage Inhibition, Histamine Binding (1 μM) H1. How it is done: To evaluate in radioligand binding assays the activity of compounds of the invention, human recombinant histamine H1 receptor expressed in Chinese hamster ovary (CHO) cells [De Backer, M. D. et al., Biochem. Biophys. Res. Comm. (1993), 197(3):1601] in a modified Tris-HCl buffer (50 mM Tris-HCl, pH 7.4, 2 mM MgCl2, 100 mM NaCl, 250 mM Sucrose) was used. Compounds of the invention were incubated with 1.2 nM [^3H]Pyrilamine for 180 min. at 25° C. Non-specific binding was estimated in the presence of 1 μM pyrilamine. Receptor proteins were filtered and washed, the filters were then counted to determine [^3H]Pyrilamine specifically bound. Compounds were screened at 1 μM or lower, using 1% DMSO as vehicle. Biochemical assay results are presented as the percent inhibition of specific binding in Table 2.
human recombinant histamine H1 receptor, sequence (P35367 whole entry): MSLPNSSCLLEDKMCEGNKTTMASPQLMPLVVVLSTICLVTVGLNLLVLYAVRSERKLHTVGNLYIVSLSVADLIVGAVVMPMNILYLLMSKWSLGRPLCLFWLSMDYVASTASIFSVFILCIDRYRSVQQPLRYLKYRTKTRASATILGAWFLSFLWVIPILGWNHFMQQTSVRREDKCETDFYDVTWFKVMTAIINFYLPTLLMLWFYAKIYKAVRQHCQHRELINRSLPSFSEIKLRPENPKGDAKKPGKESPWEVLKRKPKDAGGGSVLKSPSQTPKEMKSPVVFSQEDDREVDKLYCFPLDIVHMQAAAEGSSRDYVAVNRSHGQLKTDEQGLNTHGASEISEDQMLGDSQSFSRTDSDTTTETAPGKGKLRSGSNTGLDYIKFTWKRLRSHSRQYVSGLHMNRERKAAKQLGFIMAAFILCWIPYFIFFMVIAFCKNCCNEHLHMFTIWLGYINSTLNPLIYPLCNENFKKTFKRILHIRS

human recombinant dopamine D2L receptor, sequence (P14416 whole entry): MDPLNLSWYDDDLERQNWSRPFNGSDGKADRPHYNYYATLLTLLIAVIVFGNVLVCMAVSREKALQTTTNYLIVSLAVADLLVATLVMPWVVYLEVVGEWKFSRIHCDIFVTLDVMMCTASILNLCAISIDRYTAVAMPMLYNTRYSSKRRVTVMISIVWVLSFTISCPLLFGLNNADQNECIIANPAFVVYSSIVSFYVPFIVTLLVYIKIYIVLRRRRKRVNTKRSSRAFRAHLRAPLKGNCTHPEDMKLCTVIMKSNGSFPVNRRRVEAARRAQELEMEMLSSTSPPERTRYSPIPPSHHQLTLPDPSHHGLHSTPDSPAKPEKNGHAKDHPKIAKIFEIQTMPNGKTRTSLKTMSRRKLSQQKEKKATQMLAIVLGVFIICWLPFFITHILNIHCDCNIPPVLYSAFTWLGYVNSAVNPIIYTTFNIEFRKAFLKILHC

`Cc1ccc2c(c1)c1c(n2CC(=O)N2CCCCC2)CN2CCC1C2` (stereo not drawn) [Compound 7]: the inhibition at 1 µM in assay [1] is 0%; in assay [2], -3%; in assay [3], 2%; in assay [4], 17%.

Take `Cc1ccc2c(c1)c1c(n2CC(C)(O)c2ccc(Cl)cc2)CN2CCC1C2` (stereo not drawn) [Compound 16]: the inhibition at 1 µM stood at 103% in assay [1], 5% in assay [2], 92% in assay [3] and 20% in assay [4].

With `Cc1ccc2c(c1)c1c(n2CCc2cncc(F)c2)CN2CCC1C2` (stereo not drawn) [Compound 9], the inhibition at 1 µM in assay [1] is 45%; in assay [2], 9%; in assay [3], 4%; in assay [4] it was 89%.

For the origin of these results see patent US9271971B2, “Pyrido[3,4-B]indoles and methods of use” (Medivation Technologies, Inc., priority 2009, dated 2016).
